Results: article PMC12459020, “Chemical Probes that Target a Dissociative LuxR-Type Quorum Sensing Receptor in Gram-Negative Bacteria” (ACS Chemical Biology, 2025)

Legend:
[1] = biological target: T1, EsaR (Pantoea stewartii subsp. stewartii, UniProt P54293); experiment: P. stewartii ESN51 (ΔesaI) GFP reporter with EsaR-activated promoter (pesaS); assay type: cell-based
T1 construct: expressed in transfected cells; host or cells: E. coli JLD271 (K12 ΔsdiA), arabinose-induced pJN105-esaR
Description: (§1) EsaR transcriptional activation and repression were examined using E. coli and P. stewartii reporters (strains and plasmids listed in Table S1; see Methods section for assay details). […] We constructed reporters in E. coli based on previously reported EsaR reporters (Table S1). Each strain contained an EsaR expression plasmid (pJN105-esaR) and a reporter plasmid with either an EsaR-activated promoter (pesaS) or an EsaR-repressed promoter (pesaR) upstream of luxABCDE or GFP.
(§2) Gibson assembly was used to create all constructs. Plasmid pJN105-esaR was created by amplifying esaR from pAC-esaR and inserting it into pJN105. pesaSlux was created by inserting pesaS, amplified from pPesaR-AC:gfp, into the pCS-pesaRlux backbone. The pesaR promoter was amplified from pCS-pesaRlux and inserted into the pPesaR-AC:gfp backbone to create pesaR:GFP. P. stewartii reporter strains were created by transforming pesaR:GFP or pPesaR-AC:gfp into ESN51 by conjugation using E. coli S17 λpir as the donor strain. See SI for details of E. coli ExpR2 reporter construction.
(§3) Compound stocks were prepared and plated as described for E. coli reporter assays. […] Cultures were diluted to an OD600 of 0.05, and 198 μL was added to each well of a clear-bottom, black 96-well plate and incubated for 6 h at 28 °C (200 rpm) before reading fluorescence and OD600.

[2] = biological target: T1, EsaR; experiment: P. stewartii ESN51 (ΔesaI) GFP reporter with EsaR-repressed promoter (pesaR); assay type: cell-based
Description: as §1, §2, §3

[3] = system: P. stewartii ESN51; assay type: cell-based, Pantoea stewartii; conditions: OD600; 100 µM–1 mM tested
Description: We were curious whether the EsaR agonists identified in the E. coli reporters were also active in EsaR’s native host organism. In past studies, some E. coli LuxR-type receptor reporters have yielded EC50 values for exogenous ligands that differ by orders of magnitude relative to reporters constructed in native bacteria. Overexpression of LuxR-type receptors in E. coli has been proposed to lead to increased DNA binding and an overestimation of associative receptor sensitivity to agonists, as measured with lower EC50 values. However, because dissociative LuxR-type receptors bind to DNA in the absence of ligand, high receptor expression could instead lead to an underestimate of agonism. To account for any unintended effects of the E. coli genetic background and test compound activity at native levels of EsaR, we created genetic reporters in P. stewartii (see above and Methods section for details).
Supporting Information — Stoutland et al. […]
interesting that constitutive activituy (uninduced) from pesaR promoter is so much 2 4 6 […]
ESN51 pesaR-AC:GFP ESN51 pesaR:GFP
Figure S1. Luminescence inhibition, dynamic range, and growth of reporter strains. […]
(also on this page, place not known: 102 104 106 percent activation (GFP/OD600 - JLD)/3OC6 Normalized luminescence ✱✱✱✱✱✱✱✱ controls GFP/OD600 pesaS OD600 GAF 0.3 0.4 OD600 1mM 300µM)

[4] = biological target: T1, EsaR; experiment: cell-based
Method in brief: (§4)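 E. coli carrying arabinose-induced esaR plus pesaS (activated) or pesaR (repressed) promoter fused to lux or GFP; P. stewartii ESN51 GFP reporters also used.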

[5] = Solubility remark on supplementary figure page; assay type: physicochemical; conditions: stray annotation on SI page 6
[6] = biological target: T1, EsaR; experiment: cell-based; remark: listed apart in the source
Method in brief: as §4

T1 sequence (P54293 whole entry): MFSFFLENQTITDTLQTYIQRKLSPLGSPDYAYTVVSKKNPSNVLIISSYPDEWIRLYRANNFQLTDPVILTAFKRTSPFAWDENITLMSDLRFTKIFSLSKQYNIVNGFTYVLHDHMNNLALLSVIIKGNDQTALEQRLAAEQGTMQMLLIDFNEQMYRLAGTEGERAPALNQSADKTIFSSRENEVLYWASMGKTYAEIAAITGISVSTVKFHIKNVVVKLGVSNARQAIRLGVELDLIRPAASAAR

O=C1OCC[C@@H]1NS(=O)(=O)c1ccc(Cl)c(F)c1 [GAF 64, 3-F, 4-Cl BSHL]
EC50 [1]: 2.7 µM
EC50 [2]: 6.7 µM
growth inhibition in P. stewartii ESN51 reporters [3]: Growth inhibition

O=C(N[C@H]1CCOC1=O)c1ccc(Cl)c(Cl)c1 [GAF 58]
EsaR agonism at 100 μM (bound stated in text) ([4]; 100 μM, E. coli EsaR reporter): less than 50%
solubility remark [5]: slighly insoluble

O=C1OCC[C@@H]1NS(=O)(=O)c1ccc(Br)cc1 [GAF 35]
EC50 [6]: 23 µM
EC50 [4]: 23 µM
EC50 [1]: 24 µM
EC50 [2]: 27 µM
growth inhibition in P. stewartii ESN51 reporters [3]: Growth inhibition
